Measured values taken from US5734057A, “HIV protease inhibitors and intermediates” (Eli Lilly and Company, priority 1996, dated 1998).
Like-named read-outs stand apart in the source and are kept apart here.

Assays:
HIV = experiment: Antiviral cell culture assay (XTT viability of HIV-infected cells); format: cell-based
Source text: As noted above, the compounds of formula (I) are useful as HIV protease inhibitors and for preparing HIV protease inhibitors. These compounds may be assayed using two assays: (1) an enzyme inhibition assay, and (2) an antiviral cell culture assay.
In addition, the compounds described in the present application may be tested using an antiviral cell culture assay as described in Weislow, O. S., J. of National Cancer Institute, 81(8), pages 577-586 (Apr. 19, 1989) herein incorporated by reference.
This assay compares the viability of HIV-infected cells in a cell culture medium relative to the viability of such cells in the presence of a test compound. The concentration of test compound necessary to inhibit 90% of the virus is then measured using the viability of the cells as an indicator of viral inhibition. This assay is carried out using cell lines that are sensitive to the lyric effects of HIV infection.
Specifically, this assay utilizes the metabolic reduction of a tetrazolium reagent, 2,3-bis[2-methoxy-4-nitro-5-sulfophenyl]-5-[(phenylamino carbonyl]-2H-tetrazolium hydroxide (XTT). In the presence of a viable cell, the tetrazolium reagent, XTT, ms reduced to provide XTT formazan which may be quantified using colorimetric determination (at 450 nm). The intensity of the chromogenic signal is directly proportional to the concentration of the XTT formazan, thus providing a measure of the quantity of viable cells.
The compounds prepared in Examples 9 and 10, above, were tested using this assay.

HIV-1 protease = target: T1, HIV-1 protease (Human immunodeficiency virus type 1 group M subtype B, UniProt P04585); experiment: biochemical; settings: for IC50: read-out: Inhibitory Activity, Fluorescence Assay IC50 (converted)
T1 construct: HIV-1 Protease
Protocol: These compounds may be assayed using two assays: (1) an enzyme inhibition assay, and (2) an antiviral cell culture assay.
This assay is described in detail in published European Patent Application (EPA) 0 526 009, herein incorporated by reference. Using this assay, a number of the compounds, prepared above, were assayed for HIV protease inhibitory activity.
The assay is unable to test compounds at less than a concentration of 0.16 ng/mL.

[1] = Human immunodeficiency virus 1, concentration that inhibits 90%
[2] = concentration that inhibits 50% of the enzyme, assay limit 0.16 ng/mL

| IC90 (HIV; [1]) [nM] | IC50 (HIV-1 protease; [2]) [nM] | IC90 (HIV; concentration that inhibits 90%) [nM] | inhibition at 0.00016 µg/mL (HIV-1 protease; at 0.16 ng/mL, read-out: % inhibition at stated concentration (IC74 (0.16))) [%] | SMILES | IC50 (HIV-1 protease) [nM] |
| --- | --- | --- | --- | --- | --- |
| 2000 | 6.3 | – | – | CC(C)(C)NC(=O)[C@@H]1C[C@@H]2SCC[C@@H]2CN1C[C@@H](O)[C@H](Cc1ccccc1)NC(=O)OCc1ccccc1 [Example 5, N-t-Butyl-octahydro-5[2R-hydroxy-4-phenyl-3S-N(benzyloxycarbonyl)amino-butyl]-(3aR,7aS)-thieno[3,2-c]pyridine-(6S)-carboxamide] | – |
| – | – | – | – | CC(C)(C)NC(=O)[C@@H]1C[C@@H]2SCC[C@@H]2CN1C[C@@H](O)[C@H](CSc1ccccc1)NC(=O)OCc1ccccc1 [Example 7, N-t-Butyl-octahydro-5[2R-hydroxy-4-thiophenyl-3R-N(benzyloxycarbonyl)amino-butyl]-(3aR,7aS)-thieno[3,2-c] pyridine-(6S)-carboxamide] | 3.32 |
| 17 | 0.315 | – | – | Cc1c(O)cccc1C(=O)N[C@@H](CSc1ccccc1)[C@H](O)CN1C[C@H]2CCS[C@H]2C[C@H]1C(=O)NC(C)(C)C [Example 9, N-t-Butyl-octahydro-5[2R-hydroxy-3R-N(2'-methyl-3'-hydroxyphenylcarbonyl)amino-4-phenylthio-butyl]-(3aR,7aS)-thieno[3,2-c] pyridine-(6S)-carboxamide] | – |
| – | – | 10 | 74 | Cc1c(O)cccc1C(=O)N[C@@H](CSc1ccccc1)[C@H](O)CN1C[C@H]2CCS[C@H]2C[C@H]1C(=O)NC(C)(C)C [Example 10, N-t-Butyl-octahydro-5[2R-hydroxy-3R-N(2'-methyl-3'-hydroxyphenylcarbonyl)amino-4-phenylthio-butyl]-(3aR,7aS)-thieno[3,2-c] pyridine-(6S)-carboxamide methanesulfonate] | – |
